{"source": "patent US10881642B2", "about": "“Autophagy enhancer and use thereof” (Industry-Academic Cooperation Foundation, Yonsei University, priority 2016, dated 2021)", "key": {"HeLa cells [1]": {"test_system": "HeLa cells", "assay": "GCaMP3-ML1 lysosomal Ca2+ release imaging", "type": "cell-based", "conditions": "GPN 200 μM; ionomycin 1 μM", "protocol": "HeLa cells were transfected with perilysosomal GCaMP3-ML1 calcium probe, and Ratiometric image (474 and 410 nm excitation) was obtained.\nGCaMP3 Ca2+ Imaging. HeLa cells were grown on 15 mm coverslips and transfected with plasmid encoding the perilysosomal-localized ML1-GCaMP3 calcium probes."}, "HeLa cells [2]": {"test_system": "HeLa cells", "assay": "Acridine orange staining of acidic vesicular organelles", "type": "cell-based", "conditions": "24 hrs", "procedure": "FIG. 3A is the graph showing the percentage of nuclear translocated TFEB for which TFEB-GFP HeLa cells were treated with MSL compound for 4 hrs and then nuclei of the cells were stained with DAPI. FIG. 3B is the results of the experiments in which HeLa cells were incubated in the presence of MSL compound or vehicle control for 24 hrs and then the acidic vesicular organelles formed were stained with acridine orange. FIG. 3C is the results of the experiments in which TFEB-GFP HeLa cells were treated with MSL compound or vehicle control for 4 hrs and then the cells were immunoblotted with the antibodies indicated. […]\nScreening of autophagy enhancer. […] Firefly luciferase was determined after mixing 5 μl of lysate with 25 μl of Luciferase Assay Reagent II. Renilla luciferase was then determined after further addition of 20 ul of Stop&Glo Reagent. […] Cytotoxicity was determined by the measurement of LDH release in cell culture media using the LDH kit (Roche), according to the protocol from the manufacturer. […] Imaging and image quantification. […] Formation of acidic vesicular organelles was quantitated by staining the cells with acridine orange (Invitrogen, 5 ug/ml, 10 min). […] Cells or tissues were solubilized in lysis buffer supplemented with protease and phosphatase inhibitors and protein concentration was measured by the Bradford method. […] Protein levels were quantified by using ImageJ software analysis. […]"}}, "data": [{"smiles": "CSc1oc(-c2ccccc2)nc1S(=O)(=O)c1ccc(F)cc1", "note": "[MSL]", "values": [{"measurement": "lysosomal Ca2+ release", "setting": "HeLa cells [1]", "value": "no increase of lysosomal Ca2+ release"}, {"measurement": "red fluorescence after acridine orange staining (lysosomal acidification and content)", "setting": "HeLa cells [2]", "value": "significantly increased"}]}]}
